According to patent US6461997B1, “Triazole sulfones having herbicidal activity” (Monsanto Technology LLC, priority 1999, dated 2002):

Experiments:
SOLNI (black nightshade) = assay: Pre-emergence herbicidal activity, warm season; type: in vivo, Solanum nigrum; conditions: GR80 = lowest tested rate (300, 100, 30, 10 g/ha) with 80% or greater inhibition; approx. 14 days after treating; 30/21° C.
Summary of the method: (§1)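 Seeds sown in sterilised fertilised topsoil received surface-applied compound in 50:50 acetone/water, typically at 300, 100, 30 and 10 g/ha, then greenhouse-grown at 30/21° C (warm-season species) or 18/13° C (cool-season species). Percent inhibition versus untreated plants was scored at about 14 days, giving GR80; an asterisk marks activity short of 80% at the top rate.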

[1] = test system: GALAP (catchweed bedstraw); assay: Pre-emergence herbicidal activity, cool season; type: in vivo, Galium aparine; conditions: lowest tested rate with 80% or greater inhibition; rates 300, 100, 30, 10 g/ha; about 14 days
Summary of the method: as §1

SINAR (wild mustard) [2] = assay: Pre-emergence herbicidal activity, cool season; type: in vivo, Sinapis arvensis; conditions: lowest tested rate with 80% or greater inhibition; rates 300, 100, 30, 10 g/ha; about 14 days
Summary of the method: as §1

SASKR (russian thistle) = assay: Pre-emergence herbicidal activity, cool season; type: in vivo, Salsola kali; conditions: lowest tested rate with 80% or greater inhibition; rates 300, 100, 30, 10 g/ha; about 14 days
Summary of the method: as §1

[3] = test system: LAMPU (purple deadnettle); assay: Pre-emergence herbicidal activity, cool season; type: in vivo, Lamium purpureum; conditions: lowest tested rate with 80% or greater inhibition; rates 300, 100, 30, 10 g/ha; about 14 days
Summary of the method: as §1

AMARE (redroot pigweed) = assay: Pre-plant incorporated (PPI) herbicidal activity, warm season; type: in vivo, Amaranthus retroflexus; conditions: PPI application
Method: (§2) In another set of tests, the pre-plant incorporated (PPI) activity of compounds of this invention was evaluated on the same species as for the pre-emergence tests described above. In the PPI tests the following procedure, designed to simulate PPI application, was used.
(§3) A pre-prepared topsoil mixture (described above) was placed in a pot and compacted to a depth of 1.0 to 1.25 cm from the top of the pot. Seeds of each of several monocotyledonous and dicotyledonous annual plant species were placed on top of the soil. A sufficient quantity of soil to cover the seeds and level fill the pot was weighed into an open container. A known amount of the test compound was dissolved or suspended in an organic solvent and applied by spraying to this cover soil. The cover soil was thoroughly mixed to distribute the test compound throughout the cover soil, and was then applied as a cover layer over the seeds. Untreated soil was used as a cover layer for control pots. After treatment the plants were placed in a greenhouse where they received 0.64 cm of overhead irrigation. All subsequent watering consisted of a light overhead mist and/or subirrigation as needed for germination and growth. Tables 9 and 10 below relate to warm season plant species which were placed after pre-emergence treatment in a greenhouse with a 30/21° C. day/night temperature regime. Tables 11 and 12 below relates to cool season plant species placed after pre-emergence treatment in a greenhouse or growth chamber with an 18/13° C. day/night temperature regime. Only the compounds of Examples 1, 6, 8, 11, 13 and 15-20 were included in PPI tests.
(§4) Approximately 14 days after planting and treating, the plants were observed and herbicidal efficacy recorded as percent inhibition by comparison with untreated plants.

DATST (jimsonweed) = assay: as above; type: in vivo, Datura stramonium; conditions: PPI application
Method: as §2, §3, §4

[4] = test system: PANMI (wild proso millet); assay: as above; type: in vivo, Panicum miliaceum; conditions: PPI application
Method: as §2, §3, §4

PANDI (fall panicum) = assay: as above; type: in vivo, Panicum dichotomiflorum; conditions: PPI application
Method: as §2, §3, §4

POLCO (wild buckwheat) = assay: Pre-plant incorporated (PPI) herbicidal activity, cool season; type: in vivo, Polygonum convolvulus; conditions: weed, PPI application
Method: as §2, §3, §4

SINAR (wild mustard) [5] = assay: as above; type: in vivo, Sinapis arvensis; conditions: weed, PPI application
Method: as §2, §3, §4

ALOMY (blackgrass) = assay: as above; type: in vivo, Alopecurus myosuroides; conditions: weed, PPI application
Method: as §2, §3, §4

BROTE (downy brome) = assay: as above; type: in vivo, Bromus tectorum; conditions: weed, PPI application
Method: as §2, §3, §4

SMILES: CCN(CC)C(=O)n1cnc(S(=O)(=O)C(F)(F)C(F)(F)Br)n1 [Example 4]
- Pre-emergence activity (GR80) SOLNI (SOLNI (black nightshade)): 300 g/ha
- Pre-emergence activity GR80, GALAP [1]: 100 g/ha
- Pre-emergence activity GR80, SINAR (SINAR (wild mustard) [2]): 30 g/ha
- Pre-emergence activity GR80, SASKR (SASKR (russian thistle)): 30 g/ha
- Pre-emergence activity GR80, LAMPU [3]: 30 g/ha
- Percent inhibition AMARE (AMARE (redroot pigweed); 30 g/ha): 70%
- Percent inhibition AMARE (AMARE (redroot pigweed); 100 g/ha): 100%
- Percent inhibition AMARE (AMARE (redroot pigweed); 300 g/ha): 100%
- Percent inhibition AMARE (AMARE (redroot pigweed); 900 g/ha): 100%
- Percent inhibition DATST (DATST (jimsonweed); 30 g/ha): 0%
- Percent inhibition DATST (DATST (jimsonweed); 100 g/ha): 0%
- Percent inhibition DATST (DATST (jimsonweed); 300 g/ha): 40%
- Percent inhibition DATST (DATST (jimsonweed); 900 g/ha): 75%
- Percent inhibition PANMI ([4]; 30 g/ha): 0%
- Percent inhibition PANMI ([4]; 100 g/ha): 100%
- Percent inhibition PANMI ([4]; 300 g/ha): 100%
- Percent inhibition PANMI ([4]; 900 g/ha): 100%
- Percent inhibition PANDI (PANDI (fall panicum); 30 g/ha): 0%
- Percent inhibition PANDI (PANDI (fall panicum); 100 g/ha): 100%
- Percent inhibition PANDI (PANDI (fall panicum); 300 g/ha): 100%
- Percent inhibition PANDI (PANDI (fall panicum); 900 g/ha): 100%
- Percent inhibition POLCO (POLCO (wild buckwheat); 30 g/ha): 0%
- Percent inhibition POLCO (POLCO (wild buckwheat); 100 g/ha): 60%
- Percent inhibition POLCO (POLCO (wild buckwheat); 300 g/ha): 90%
- Percent inhibition POLCO (POLCO (wild buckwheat); 900 g/ha): 100%
- Percent inhibition SINAR (SINAR (wild mustard) [5]; 30 g/ha): 95%
- Percent inhibition SINAR (SINAR (wild mustard) [5]; 100 g/ha): 100%
- Percent inhibition SINAR (SINAR (wild mustard) [5]; 300 g/ha): 100%
- Percent inhibition SINAR (SINAR (wild mustard) [5]; 900 g/ha): 100%
- Percent inhibition ALOMY (ALOMY (blackgrass); 30 g/ha): 70%
- Percent inhibition ALOMY (ALOMY (blackgrass); 100 g/ha): 95%
- Percent inhibition ALOMY (ALOMY (blackgrass); 300 g/ha): 100%
- Percent inhibition ALOMY (ALOMY (blackgrass); 900 g/ha): 100%
- Percent inhibition BROTE (BROTE (downy brome); 30 g/ha): 0%
- Percent inhibition BROTE (BROTE (downy brome); 100 g/ha): 50%
- Percent inhibition BROTE (BROTE (downy brome); 300 g/ha): 85%
- Percent inhibition BROTE (BROTE (downy brome); 900 g/ha): 90%
